Measured values: patent publication US20240269113A1, “3-(2-(DIMETHYLAMINO)ETHYL)-1H-INDOL-4-yl DERIVATIVES” (priority 2023, published 2024)

Key:
[1] = assay type: in vitro ADME
Experimental: The elimination rate constant and half-life (t1/2) were determined using Ln(MS response) vs time plots. […] The human plasma stability data are included in table A.

With `CC(=O)N(C)CCOC(=O)Oc1cccc2[nH]cc(CCN(C)C)c12` [Compound 87, 3-(2-(dimethylamino)ethyl)-1H-indol-4-yl (2-(N-methylacetamido)ethyl) carbonate] the “Human Plasma Maximum % Psilocin” value [1] was 91%.
In the case of `CN(C)CCc1c[nH]c2cccc(OC(=O)c3cccnc3)c12` [Compound 91, 3-(2-(dimethylamino)ethyl)-1H-indol-4-yl nicotinate], the “Human Plasma Maximum % Psilocin” value [1] is reported as 100%.
For `CN(C)CCc1c[nH]c2cccc(OC(=O)CCCc3ccccc3)c12` [Compound 96, 3-(2-(dimethylamino)ethyl)-1H-indol-4-yl 4-phenylbutanoate], the “Human Plasma Maximum % Psilocin” value [1] was 75%.
With `CC(=O)Oc1ccccc1C(=O)Oc1cccc2[nH]cc(CCN(C)C)c12` [Compound 99, 3-(2-(dimethylamino)ethyl)-1H-indol4-yl 2-acetoxybenzoate] the “Human Hepatocytes Maximum % Psilocin” value was 100% and the “Human Plasma Maximum % Psilocin” value [1] was 100%.
In the case of `CN(C)CCc1c[nH]c2cccc(OC(=O)Cc3ccccc3)c12` [Compound 176, 3-(2-(dimethylamino)ethyl)-1H-indol-4-yl 2-phenylacetate], the “Human Plasma Maximum % Psilocin” value [1] is reported as 100%.
